This is an account of results in PubChem BioAssay (NCI).

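Assay format: 96-well plates, 48-hour exposure. Abbreviation: GI50, concentration required for 50% inhibition of growth. TGI: total growth inhibition.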 Some results are limits rather than exact numbers.

For orientation: GI50 means the concentration giving 50% growth inhibition. As a reminder, the TGI is the concentration at which net growth stops.

Assay in all cases: DTP human tumour cell line panel, 48 h
For experiment [1], the system named is BT-549 breast.
Experiment [2] concerns DU-145 prostate.
Experiment [3] deals with HS 578T breast.
Experiment [4] concerns NCI/ADR-RES ovarian.
Experiment [5] deals with PC-3 prostate.

In the case of `COc1ccc2c(c1)/C(=C/c1cc(OC)c(OC)c(OC)c1)C(=O)N2`, the GI50 in experiment [1] is 1.37 µM; in experiment [2], 0.655 µM; in experiment [3] it was 0.362 µM; in experiment [4] it was 0.142 µM; in experiment [5] it was 0.364 µM. Also, the TGI was more than 100 µM in experiment [1]; more than 100 µM in experiment [2]; 12.8 µM in experiment [3]; 1.74 µM in experiment [4]; more than 100 µM in experiment [5].
In the case of `N#Cc1ccc(NC(=O)C(CC(=O)OCc2ccccc2)NC(=O)OCc2ccccc2)cc1` (stereo unspecified), the TGI in experiment [2], in experiment [3], in experiment [4] and in experiment [5] was more than 100 µM in each case. Besides, the GI50 in experiment [3], in experiment [4] and in experiment [5] was more than 100 µM each time.
Consider `N#CNC(N)=Nc1ccc(Cl)cc1`, for which the TGI in experiment [1], in experiment [2], in experiment [3], in experiment [4] and in experiment [5] was more than 100 µM each time.
Regarding `CC1(C)CC2C(=O)c3ccccc3NC2c2ccccc21` (stereo unspecified), the TGI in experiment [1] was more than 100 µM; in experiment [2], more than 100 µM; in experiment [3], 6.99 µM; in experiment [4], more than 100 µM; in experiment [5], more than 100 µM.
On to `Cc1ccc(NC(=O)c2cc(S(=O)(=O)N3C(=O)NC(=O)NS3(=O)=O)c(S)cc2Cl)cc1`, for which the GI50 was 24.2 µM in experiment [1]; 23.2 µM in experiment [2]; 29.4 µM in experiment [3]; more than 100 µM in experiment [4]; 32.3 µM in experiment [5]. The TGI in experiment [1] is 63.9 µM; in experiment [2], 64 µM; in experiment [3] it was 95.8 µM; in experiment [4], more than 100 µM; in experiment [5] it was more than 100 µM.
As for `O=c1c(F)cn(Cc2ccccc2CCl)c(=O)n1Cc1ccccc1CCl`, the GI50 is 1.41 µM in experiment [1]; 1.79 µM in experiment [2]; 1.92 µM in experiment [3]; 2.97 µM in experiment [4]; 2.54 µM in experiment [5]. In addition, the TGI in experiment [1] is 2.91 µM; in experiment [2] it was 3.42 µM; in experiment [3], 6.93 µM; in experiment [4], 11.8 µM; in experiment [5], 8.83 µM.
Consider `O=C(Nc1ccc(Cl)c(Cl)c1)NS(=O)(=O)c1cnccc1Oc1ccc(F)cc1`, for which the GI50 in experiment [1] was 6.84 µM; in experiment [2] it was 4.19 µM; in experiment [3], 3.25 µM; in experiment [4], 4.38 µM; in experiment [5] it was 3.25 µM. The TGI was 40.4 µM in experiment [1]; 28.8 µM in experiment [2]; more than 100 µM in experiment [3]; more than 100 µM in experiment [4]; more than 100 µM in experiment [5].
As for `C(=N\Nc1nnn(Cc2ccccc2)n1)/c1ccccc1`, the GI50 in experiment [1] was 11.5 µM; in experiment [2], 6.73 µM; in experiment [3], 13.7 µM; in experiment [4], 0.545 µM; in experiment [5], 6.82 µM. Moreover, the TGI in experiment [1] was more than 100 µM; in experiment [2], more than 100 µM; in experiment [3] it was more than 89.6 µM; in experiment [4], 8.78 µM; in experiment [5] it was more than 100 µM.
On to `C=C1C(=O)O[C@H]2[C@H]1CC/C(C=Nc1c(N)cc(C(F)(F)F)cc1Br)=C\CC[C@@]1(C)O[C@@H]21`, for which the GI50 is 1.41 µM in experiment [1]; 1.48 µM in experiment [2]; 2.08 µM in experiment [3]; 2.31 µM in experiment [4]; 1.5 µM in experiment [5]. The TGI in experiment [1] was found to be 2.91 µM; in experiment [2], 2.95 µM; in experiment [3], 9.5 µM; in experiment [5], 3.85 µM.
Take `CC(=O)O[C@H]1CCc2c(cc(N)c3c2C(=O)C[C@]2(C)C([C@H](C)CCCC(C)C)CCC32C)C1(C)C` (stereo partly specified): the concentration for total growth inhibition (TGI) in experiment [1], in experiment [2], in experiment [3], in experiment [4] and in experiment [5] was more than 100 µM in each case.
For `C=C1C(=O)O[C@H]2[C@H]1CC/C(COC(=O)NCC(C)c1ccc(CC(C)C)cc1)=C\CC[C@@]1(C)O[C@@H]21` (stereo partly specified), the GI50 in experiment [1] was 0.775 µM; in experiment [2], 2.93 µM; in experiment [3], 1.53 µM; in experiment [4], 3.54 µM; in experiment [5], 0.691 µM. The TGI in experiment [1] turned out to be 2.25 µM; in experiment [2], 6.95 µM; in experiment [3], 15 µM; in experiment [4], 10.1 µM; in experiment [5] it was 1.76 µM.
For `CC(C)CCC1(CCN)C(=O)NC(=O)NC1=O`, the TGI in experiment [1], in experiment [2], in experiment [3], in experiment [4] and in experiment [5] was more than 100 µM each time.
Regarding `Cc1cc(I)cc(CN(C)CCCN2CCCC2)c1O`, the GI50 in experiment [1] is 13.9 µM; in experiment [2], 31.4 µM; in experiment [3] it was 13.6 µM; in experiment [4], 36.7 µM; in experiment [5], 25 µM. Besides, the TGI in experiment [1] is 31.7 µM; in experiment [2] it was more than 100 µM; in experiment [3] it was 33.8 µM; in experiment [4], more than 100 µM; in experiment [5] it was 73.7 µM.
Turning to `COC(=O)C(/C(=N\O)C(=O)Nc1cccc(Cl)c1C)c1cnc2ccccc2n1` (stereo unspecified), the TGI in experiment [1], in experiment [2], in experiment [4] and in experiment [5] was more than 100 µM in each case.
Regarding `COc1ccc(C(=O)c2ccc([As]=O)cc2)cc1` (stereo unspecified), the GI50 in experiment [1] was 0.166 µM; in experiment [2], 0.0735 µM; in experiment [3] it was 0.149 µM; in experiment [5], 0.056 µM. The TGI is 0.315 µM in experiment [1], 0.198 µM in experiment [2], 0.586 µM in experiment [3] and 0.185 µM in experiment [5].
Regarding `C=C1C(O)CC[C@]2(C)C1C1OC(C)(C)O[C@]13CC(=O)C(C)=C([C@H]1OC(C)(C)OC12)C3(C)C` (stereo partly specified), the TGI in experiment [1], in experiment [2] and in experiment [4] was more than 100 µM in each case.
